These results are taken from article PMC6321453, “Identification of Pinocembrin as an Anti-Glycation Agent and α-Glucosidase Inhibitor from Fingerroot (Boesenbergia rotunda): The Tentative Structure–Activity Relationship towards MG-Trapping Activity” (Molecules, 2018).

In assay [1] the test system is MG-derived AGEs formation in BSA. The assay is described as follows: In vitro glycation of BSA by MG-BSA assay (fluorescent-AGEs formation). Format: biochemical, bovine. As to conditions: compound 0.1 mM, BSA 10 mg/mL, MG 0.25 mM, PBS pH 7.4, 37 °C, 24 h; fluorescence ex 355/em 460 nm. The procedure:
All isolated compounds were evaluated for their inhibitory effect on the fluorescent-AGEs formation after incubation with bovine serum albumin (BSA) and MG for 24 h (Figure 2).
Figure 2 Advanced glycation-end products (AGEs) inhibition activity of aminoguanidine (0.1 mM) and isolated compounds (0.1 mM) on MG-derived AGEs formation inhibition in BSA. The results are presented as mean ± SEM for n = 3. Different letters show significant differences analyzed by ANOVA with Duncan’s post hoc test (p < 0.05).
Glycated BSA was carried out according to our previous study. The mixture of bovine serum albumin (BSA, 10 mg/mL), isolated compound (0.1 mM in dimethyl sulfoxide, DMSO), and methylglyoxal (MG, 0.25 mM) in 0.1 M phosphate buffer solution (PBS, pH 7.4) was incubated at 37 °C for 24 h. The glycated BSA was monitored by a spectrofluorometer (Fluroskan Ascent FL, Thermo Scientific, Barrington, IL, USA) at the excitation wavelength of 355 nm, and an emission wavelength of 460 nm. Aminoguanidine hydrochloride (AG) was utilized as a positive control. The percentage inhibition of MG-derived AGE formation was calculated by utilizing the formula below:(1) Inhibition of AGEs formation (%)=(FC−FCB)−(FS−FSB)/FC−FCB×100 where FC and FCB are the fluorescent intensities of the control with and without MG, respectively. FS and FSB are the fluorescent intensities of the sample with and without MG, respectively.

Assay [2] in a line: Direct MG-trapping activity by HPLC. As to conditions: compound 0.1 mM, MG 0.1 mM, PBS pH 7.4, 37 °C, 24 h; HPLC of 2-MQ. The procedure: Figure 3 The percentage of MG-trapping abilities of isolated compounds (0.1 mM). The results are presented as the mean ± SEM for n = 3. Different letters show significant differences, as analyzed by ANOVA, with Duncan’s post hoc test (p < 0.05).
The ability of the isolated compounds to trap MG was carried out, according to our previous report. The reaction mixture of MG (0.1 mM), isolated compound (0.1 mM in DMSO) and 0.1 M PBS (pH 7.4) was incubated at 37 °C for 24 h. The quantitative amount of the remaining MG was determined by derivatization with o-phenylenediamine (o-PDA) to convert to 2-methylquinoxaline (2-MQ). Then, 2-MQ obtained was measured by HPLC using 5-methylquinoxaline (5-MQ) as an internal standard. The mixture comprising 100 µL of o-PDA (20 mM) and 100 µL of 5-MQ (5 mM) was added into the sample vials, and incubated at 25 °C for 30 min. HPLC analysis was performed on a Shimadzu HPLC system (binary pump; model LC-10A, an auto-injector; model SIL-10A, and a UV detector; model SPD-10A) equipped with an Inertsil ODS-3 V C18 column (4.6 × 150 mm, 5 μm particle diameter). The column was flushed with a mixture of 1:1 methanol–water at a flow rate of 1 mL/min, and a 10 μL of injection volume. The overall running time was 15 min, and the wavelength used for detection was 315 nm. The area under each chromatogram peak, 2-MQ and 5-MQ, was calculated with an LC solution program. Peak integrality proportions of 2-MQ to 5-MQ were utilized for quantitative examination. The amount of MG was calculated by utilizing the standard curve of 2-MQ/5-MQ proportion. AG was utilized as a positive control. The percentage MG-trapping was calculated utilizing the formula below:(2) %MG−trapping=100−[Amount of (MG in sample−MG in positive control)/Amount of MG in positive control×100]

The next assay has as its system rat intestinal maltase. The assay can be described thus: α-Glucosidase inhibitory activity and kinetic study, maltase. Format: biochemical. On the procedure:
(§1) The α-glucosidase (from rat intestine) inhibitory effect was evaluated, utilizing our previous study. Rat intestinal maltase and sucrase, a crude enzyme solution, was prepared from rat intestinal acetone powder. A solution of rat intestinal acetone powder (1 g) in 0.9% NaCl solution (30 mL) was centrifuged (12,000 rpm) for 30 min, and then the aliquot obtained was used for the assay. The mixture of 10 μL of isolated compounds (1 mg/mL in DMSO), 30 μL of the phosphate buffer (0.1 M, pH 6.9), and 20 μL of the substrate solution (10 mM for maltose and 100 mM for sucrose in phosphate buffer) was added to a glucose assay kit (80 μL) and the crude enzyme solution (20 μL), which then was incubated at 37 °C for 10 min and 40 min for maltose and sucrose, respectively. The enzymatic activity was measured at 503 nm by using a microplate reader, model 3550 UV. The percentage inhibition was calculated by [(Ac − As)/Ac] × 100, where Ac is the absorbance of the control, and As is the absorbance in the presence of sample. The results were reported as the IC50 value, and the experiment was carried out in triplicate. Acarbose® was used as a standard control.
(§2) The kinetic analysis of pinocembrin was determined by using an increasing concentration of substrates maltose (2–10 mM) and sucrose (20–100 mM), and a Lineweaver–Burk plot was performed to determine the type of inhibition. The secondary plot was utilized to determine the Ki and Ki′ values, which were replotted between the slope and intercept from the Lineweaver–Burk plot vs the various concentrations of pinocembrin.

In the next assay the target is T1, rat intestinal sucrase (Rattus norvegicus, UniProt P23739).
T1 construct: a crude enzyme solution, was prepared from rat intestinal acetone powder; from tissue; host or cells: rat intestine (acetone powder, crude extract)
T1 sequence (P23739 whole entry): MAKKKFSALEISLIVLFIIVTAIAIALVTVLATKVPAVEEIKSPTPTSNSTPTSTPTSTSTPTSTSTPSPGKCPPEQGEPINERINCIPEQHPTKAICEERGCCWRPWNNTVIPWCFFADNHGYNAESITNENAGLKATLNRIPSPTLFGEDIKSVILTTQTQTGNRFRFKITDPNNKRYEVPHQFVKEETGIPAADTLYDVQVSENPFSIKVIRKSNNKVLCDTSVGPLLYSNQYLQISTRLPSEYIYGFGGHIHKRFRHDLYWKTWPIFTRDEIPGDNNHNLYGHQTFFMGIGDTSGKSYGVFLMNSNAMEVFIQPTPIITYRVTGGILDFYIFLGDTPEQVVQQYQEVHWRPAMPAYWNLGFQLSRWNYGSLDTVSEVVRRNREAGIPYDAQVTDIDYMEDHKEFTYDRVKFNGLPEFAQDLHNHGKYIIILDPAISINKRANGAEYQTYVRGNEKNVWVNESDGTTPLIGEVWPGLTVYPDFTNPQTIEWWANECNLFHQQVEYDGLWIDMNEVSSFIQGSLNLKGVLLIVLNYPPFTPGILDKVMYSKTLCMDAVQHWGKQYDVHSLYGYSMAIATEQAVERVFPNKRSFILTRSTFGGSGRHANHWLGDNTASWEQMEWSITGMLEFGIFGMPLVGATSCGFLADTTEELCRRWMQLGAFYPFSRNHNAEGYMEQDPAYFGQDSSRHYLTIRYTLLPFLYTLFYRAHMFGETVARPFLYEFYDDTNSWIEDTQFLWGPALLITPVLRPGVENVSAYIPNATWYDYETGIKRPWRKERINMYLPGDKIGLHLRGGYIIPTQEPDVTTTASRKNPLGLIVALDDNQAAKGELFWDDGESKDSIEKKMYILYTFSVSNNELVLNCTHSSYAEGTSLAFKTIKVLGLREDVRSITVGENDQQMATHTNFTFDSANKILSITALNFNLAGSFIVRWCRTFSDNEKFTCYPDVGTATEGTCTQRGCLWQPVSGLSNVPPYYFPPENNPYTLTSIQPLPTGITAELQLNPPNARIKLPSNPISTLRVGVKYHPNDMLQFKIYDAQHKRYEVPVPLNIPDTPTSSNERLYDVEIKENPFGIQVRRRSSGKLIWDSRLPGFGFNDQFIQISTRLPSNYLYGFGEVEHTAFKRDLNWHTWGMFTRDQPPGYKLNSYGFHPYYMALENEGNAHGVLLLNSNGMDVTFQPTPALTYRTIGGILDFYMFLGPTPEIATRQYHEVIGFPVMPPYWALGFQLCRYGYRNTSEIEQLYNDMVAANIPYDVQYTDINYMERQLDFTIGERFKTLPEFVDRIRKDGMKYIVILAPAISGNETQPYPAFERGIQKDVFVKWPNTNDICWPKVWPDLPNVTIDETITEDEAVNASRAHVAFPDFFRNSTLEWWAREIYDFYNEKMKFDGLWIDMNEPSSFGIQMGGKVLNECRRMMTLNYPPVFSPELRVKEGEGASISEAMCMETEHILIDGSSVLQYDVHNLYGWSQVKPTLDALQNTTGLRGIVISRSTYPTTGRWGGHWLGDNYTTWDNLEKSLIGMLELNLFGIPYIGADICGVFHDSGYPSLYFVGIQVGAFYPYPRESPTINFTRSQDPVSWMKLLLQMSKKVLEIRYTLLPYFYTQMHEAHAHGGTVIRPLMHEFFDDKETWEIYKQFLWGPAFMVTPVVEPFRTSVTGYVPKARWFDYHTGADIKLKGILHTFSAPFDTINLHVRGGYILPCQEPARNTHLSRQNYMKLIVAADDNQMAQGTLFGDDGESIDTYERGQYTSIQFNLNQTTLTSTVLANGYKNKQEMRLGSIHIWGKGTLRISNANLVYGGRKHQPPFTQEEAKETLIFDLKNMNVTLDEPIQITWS
The assay is described as follows: α-Glucosidase inhibitory activity and kinetic study, sucrase. It counts as biochemical. The procedure:
as §1, §2

Assay [3] is described as follows: Direct MG-trapping activity by HPLC. As to conditions: against methylglyoxal.

Turning to `Cl.N=C(N)NN` [AG, Aminoguanidine hydrochloride, reference compound], the “Inhibition of MG-derived AGEs formation” value in assay [1] is reported as 28%. The “MG-trapping activity, percentage related to AG (100%)” value in assay [2] was 100%.

In general, Ki refers to a measure of affinity in units of concentration, obtained from inhibition or displacement. Read a high Ki as a looser hold on the target. The term IC50 denotes the concentration needed to halve the response being measured. For orientation: EC50 means the concentration needed to bring the measured effect to its halfway point. Higher therefore signals weaker potency. As to `O=C1C[C@@H](c2ccccc2)Oc2cc(O)cc(O)c21` [compound 1, pinocembrin], the “Inhibition of MG-derived AGEs formation” value in assay [1] is on record as 38%. Moreover, the “MG-trapping activity, percentage related to AG (100%)” value in assay [2] turned out to be 109%. Also, the “Inhibition Type” value with rat intestinal maltase (maltase, Lineweaver–Burk plot) was “mixed-type”; on rat intestinal sucrase (sucrase, Lineweaver–Burk plot) it was “mixed-type inhibition”. In addition, the Ki on rat intestinal maltase (maltase, dissociation constant of EI complex, secondary plot of slope) came out at 93 µM; at rat intestinal maltase (maltase, dissociation constant of ESI complex, secondary plot of intercept), 138 µM; on rat intestinal sucrase (sucrase, dissociation constant of EI complex), 51 µM; on rat intestinal sucrase (sucrase, dissociation constant of ESI complex) it was 253 µM. For the same compound, the IC50 was 350 ± 21 µM on rat intestinal maltase (rat intestinal maltase, substrate maltose, read-out: IC50 against maltase) and 390 ± 20 µM at rat intestinal sucrase (rat intestinal sucrase, substrate sucrose, read-out: IC50 against sucrose). In assay [3], this compound registered a 50% effective concentration (EC50) of 63.2 ± 10.1 µM.

`COc1cc(O)c2c(c1)O[C@H](c1ccccc1)CC2=O` [compound 2, pinostrobin]: in assay [1], the “Inhibition of MG-derived AGEs formation” value is listed as 19%. Besides, the “MG-trapping activity, percentage related to AG (100%)” value in assay [2] is 5%.

Regarding `COc1cc(O)cc(O)c1C(=O)/C=C/c1ccccc1` [compound 4, cardamomin], in assay [1], the “Inhibition of MG-derived AGEs formation” value stood at 44%. For the same compound, in assay [2], the “MG-trapping activity, percentage related to AG (100%)” value was 28%.

With `COc1cc2c(c(O)c1C(=O)/C=C/c1ccccc1)C=CC(C)(CCC=C(C)C)O2` (stereo not drawn) [compound 5, boesenbergin B], the “Inhibition of MG-derived AGEs formation” value in assay [1] was 39%. The “MG-trapping activity, percentage related to AG (100%)” value in assay [2] is reported as 19%.

Consider `COc1cc(O)c(C(=O)[C@@H]2[C@H](CC=C(C)C)C(C)=CC[C@H]2c2ccccc2)c(O)c1` [compound 6, panduratin A], for which, in assay [1], the “Inhibition of MG-derived AGEs formation” value turned out to be 43%. Also, the “MG-trapping activity, percentage related to AG (100%)” value in assay [2] is 60%.

With `COc1cc(O)cc(O)c1C(=O)C1C(CC=C(C)C)C(C)=CCC1c1ccccc1` (stereo not drawn) [compound 7, isopanduratin A], the “Inhibition of MG-derived AGEs formation” value in assay [1] was 36%. For the same compound, in assay [2], the “MG-trapping activity, percentage related to AG (100%)” value came out at 9%.

With `COc1cc(/C=C/c2ccccc2)oc(=O)c1` [compound 8, demethoxyyangonin], the “Inhibition of MG-derived AGEs formation” value in assay [1] is reported as 46%. Further, in assay [2], the “MG-trapping activity, percentage related to AG (100%)” value amounted to 23%.

On to alpinetin [compound 3], for which the “Inhibition of MG-derived AGEs formation” value in assay [1] stood at 50%. Moreover, the “MG-trapping activity, percentage related to AG (100%)” value in assay [2] turned out to be 14%.
